{
  "source": "patent US6465466B1",
  "about": "“Uses of indolo-2 [2,3b] -quinoxalines” (priority 1995, dated 2002)",
  "key": {"skin tumors": {"tested_on": "skin tumors", "test": "Skin tumor model, DMBA initiation and TPA promotion", "format": "in vivo, mice", "experimental": "The compounds used according to the present invention have been tested as regards the formation of tumors (skin tumors) for mice subjected to strong tumor initiating and strong tumor promotion conditions. […] Furthermore, if the administration of the compound used according to the present invention is terminated, the animals will develop the same number of tumors as in the positive control. This means that the original DNA injury remains and the tumor promoter which is administered continuously can give rise to a considerable development of tumors. Accordingly a compound used according to the present invention can stop the tumor process caused by potent tumor promoting agents in combination with potent tumor initiators.\nThis example illustrates a tumor model which is based on in vivo tumor initiation with one does of dimethylbenzanthracene (DMBA) where after, a potent tumor promoter […] (TPA) was administered twice a week. After a number of weeks the skin tumors can be detected and followed during the study, After approximately 100 days (A) the positive controls reached the maximum, where after the total number declines due to the behavior of the animals. […] After six months exposure of B-220+TPA in the B-220 group, B-220 was no longer administered (B)."}, "[1]": {"tested_on": "regeneration of liver tissue", "test": "In vivo toxicity: liver regeneration after partial hepatectomy (liver-somatic index)", "parameters": "species or system rats", "experimental": "The in vivo toxicity of B-220 was tested in rats. A portion of the liver was removed (partial hepatectomy, PH) by surgery and the regeneration of liver tissue was studied. The regeneration was measured as liver-somatic index (LSI), in other words, the relative liver weight in percent of the body weight.\nAAF (2-acetylaminofluorene) is a very toxic substance which acts as a mito-inhibitor, i.e. inhibits cell division of normal liver cells.\nThe results are shown in FIG. 3 wherein LSI is plotted against days after partial hepatectomy."}, "[2]": {"tested_on": "human cell cultures of phagocytes", "test": "Luminol chemiluminescence in human phagocyte cultures", "format": "cell-based", "conditions": "dose dependent; intracellular, also seen extracellular; same effect as salt and free base", "source_text": "In this test the effects of “B220” have been exposed to human cell cultures of phagocytes. Luminol reacts with the markers for oxidative stress, hydrogen peroxide or the superoxide ion, and generates light. […] “B220” has the same effect both in the form of salt and the free base."}, "[3]": {"test": "Whole body gamma-irradiation of mice", "format": "in vivo", "experimental": "Gamma-irradiation is a very potent agent which can induce oxidative stress, reduce body weight gain and shorten life span. In FIG. […] The human LD50 of gamma-irradiation os approximately 3 Gy.\n“B220” was administered intra peritoneal in corn oil 24 and 3 h before the irradiation.\nThe body weight gain of each group is shown as percent of the body weight at the time of irradiation. A lower body weight gain is an indicator of a shorter life span in the long term perspective. Gamma-irradiation is a way to induce a premature aging which is also seen as gray fur in these mice."}, "bacterial strain TA 100": {"tested_on": "bacterial strain TA 100", "test": "Ames test, mutagenicity of MMS and EMS with and without B-220", "format": "cell-based, Salmonella", "conditions": "for mutagenicity of the mutagen alone (revertants/plate): TA 100, without B-220", "experimental": "The following example illustrates the fact that compound B-220 reduces the mutagenicity of potent mutagens in the bacterial mutagenicity test, the “Ames test”. In the test the bacterial strain TA 100 was used. […] These mutagens were MMS=Methylmethanesulphonate and EMS=Ethylmethanesulphonate. The results of the experiments carried out are shown graphically in FIGS. 2a and 2b. In the Figures revertants/plate, is plotted against microgram MMS and EMS, respectively, plus 70 μg B-220."}, "[4]": {"tested_on": "8-hydroxy-2'-deoxyguanosine (8-OH-dG)", "test": "8-OH-dG formation in DNA after oral 2,7-dinitrofluorene", "format": "in vivo", "conditions": "rats pre-treated with B220, 2,7-dNF orally", "source_text": "Oxidation of deoxyguanosine (dG), one of the bases in DNA, is an oxidative lesion of DNA related to oxidative stress. The reaction product between free radicals and dG is 8-hydroxy-2′-deoxyguanosine (8-OH-dG). This biomarker is a reaction product found in DNA, i.e. the oxidative stress is not only found as oxidants in the circulation or in the cytoplasm, but reaches the nucleus and reacts with DNA. In FIG. 8 results are shown when the urban air pollutant (result of incomplete combustion of fuels of vehicles) and carcinogen 2,7-dinitrofluorene (2,7-dNF) was administered orally to rats. In the metabolism, reactive intermediates were formed that oxidized dG to 8-OH-dG."}, "test strain TA100": {"tested_on": "test strain TA100", "test": "Ames test, mutagenic potential of the substances, test strain TA100", "format": "cell-based, Salmonella", "conditions": "for anti-mutagenic potential (reduction of spontaneous background): TA100; for mutagenic potential (revertants/plate): TA100, with and without S9", "source_text": "This example illustrates the mutagenic potential in the bacterial mutagenicity test, “Ames test”, with test strain TA100, of B-220 (FIG. 1a) and 9-OH-B-220 (FIG. 1b). S9 indicates the presence […] or absence (−S9) of a cellular enzymatic fraction capable to metabolize the tested substances. The metabolic activation is a liver fraction containing enzymes needed in metabolism. In the Figures revertants/plate, an intensity measurement of mutagenic activity, is plotted against μg B-220 and μg 9-OH-B-220."}},
  "data": [
    {"smiles": "Cc1cc2nc3c4ccccc4n(CCN(C)C)c3nc2cc1C", "note": "[Example B-220]", "values": [
      {"measurement": "skin tumors", "setting": "skin tumors; after six months of B-220+TPA", "value": "very slight increase in tumors"},
      {"measurement": "skin tumors after B-220 no longer administered", "setting": "skin tumors; after six months, TPA continued, B-220 stopped", "value": "rapid increase of tumors"},
      {"measurement": "skin tumors", "setting": "skin tumors; approximately 100 days, B-220 one hour before TPA, DMBA-initiated", "value": "no tumors at all"},
      {"measurement": "carcinogenicity", "setting": "skin tumors; skin tumor model", "value": "not a carcinogen"},
      {"measurement": "regeneration of liver tissue (liver-somatic index, LSI)", "setting": "[1]; rat, in vivo", "value": "no difference from the controls"},
      {"measurement": "toxic effects in vivo", "setting": "[1]; rat, in vivo", "value": "did not show any toxic effects"},
      {"measurement": "formation of hydrogen peroxide and superoxide ion generated by oxidase (chemiluminescence)", "setting": "[2]", "value": "down regulates and even eliminates"},
      {"measurement": "protective effect (life span)", "setting": "[3]; 8 Gy, administration after irradiation", "value": "protective effect similar to pre-treatment"},
      {"measurement": "protective effect (increased life span)", "setting": "[3]; 8 Gy, intra peritoneal in corn oil 24 and 3 h before irradiation", "value": "protective effect"},
      {"measurement": "protective effect (life span)", "setting": "[3]; 14 Gy, intra peritoneal in corn oil 24 and 3 h before irradiation", "value": "no protective effect"},
      {"measurement": "body weight gain", "setting": "[3]; lower doses, 1 and 6 Gy", "value": "increased body weight gain"},
      {"measurement": "mutagenicity of EMS when B-220 is added", "setting": "bacterial strain TA 100; TA 100, EMS plus 70 μg B-220", "value": "reduced the mutagenicity but not as much as for MMS"},
      {"measurement": "mutagenicity of MMS when B-220 is added", "setting": "bacterial strain TA 100; TA 100, MMS plus 70 μg B-220", "value": "the mutagenicity disappears"},
      {"measurement": "oxidative stress (8-OH-dG in DNA)", "setting": "[4]", "value": "down-regulated to levels lower than the controls"},
      {"measurement": "anti-mutagenic potential (reduction of spontaneous background)", "setting": "test strain TA100", "value": "anti-mutagenic"},
      {"measurement": "mutagenic potential (revertants/plate)", "setting": "test strain TA100", "value": "non-mutagenic"}
    ]},
    {"smiles": "COS(C)(=O)=O", "note": "[MMS, Methylmethanesulphonate, reference compound]", "values": [
      {"measurement": "mutagenicity of the mutagen alone (revertants/plate)", "setting": "bacterial strain TA 100", "value": "strong mutagen"}
    ]},
    {"smiles": "CC(=O)Nc1ccc2c(c1)Cc1ccccc1-2", "note": "[AAF, 2-acetylaminofluorene, reference compound]", "values": [
      {"measurement": "regeneration of liver tissue (liver-somatic index, LSI)", "setting": "[1]; rats, days after partial hepatectomy", "value": "very slow"}
    ]},
    {"smiles": "CCOS(C)(=O)=O", "note": "[EMS, Ethylmethanesulphonate, reference compound]", "values": [
      {"measurement": "mutagenicity of the mutagen alone (revertants/plate)", "setting": "bacterial strain TA 100", "value": "strong mutagen"}
    ]},
    {"smiles": "CN(C)CCn1c2ccc(O)cc2c2nc3ccccc3nc21", "values": [
      {"measurement": "melting point", "value": "269 to 270", "unit": "°C"}
    ]},
    {"smiles": "Cc1cc2nc3c4cc(O)ccc4n(CCN(C)C)c3nc2cc1C", "note": "[Example 9-OH-B-220, 2,3-Dimethyl-6-(2-dimethylaminoethyl)-9-hydroxy-6H-indolo[2,3-b]-quinoxaline]", "values": [
      {"measurement": "anti-mutagenic potential (reduction of spontaneous background)", "setting": "test strain TA100", "value": "anti-mutagenic"},
      {"measurement": "mutagenic potential (revertants/plate)", "setting": "test strain TA100", "value": "non-mutagenic"}
    ]}
  ]
}
